Five compounds from patent US20260115209A1, “COMBINATION THERAPY INCLUDING COX-2 INHIBITOR FOR THE TREATMENT OF CANCER” (THE REGENTS OF THE UNIVERSITY OF CALIFORNIA, priority 2022, published 2026) can be followed below.

Molecules are shown by their SMILES.

Experiment [1] concerns BRAF^V600E CRC cell lines. The experiment is described as follows: Cell viability assays, drug combinations, shift in vemurafenib sensitivity and combination index. The class given is cell-based. To be noted: FIG. 5C. As for the experimental part:
To assess the growth/survival response of cell lines to single or combinatorial drug treatments, we used CellTiter-Glo cell viability assay (Promega; cat #G7571). Cell culture and luminescence readouts were performed in 96- and 384-well plates after 3-day treatments.
To calculate CI values in FIGS. 2A, 2B, 2E, FIGS. 5C, 5E, 5G and FIG. 6A, we applied the Bliss Independence model (54,55), which uses experimental profiles and avoids inaccuracies that commonly occur with dose-effect curve estimation approaches. CI is calculated as CI=−log 2 (Eab/(Ea*Eb)), where Ea and Eb correspond to the effects of drugs a and b alone at a given concentration, and Eab corresponds to the combined effects of drugs a and b at these same concentrations. In this model, CI>0 indicates synergistic effect, CI=0 indicates additivity effect, CI<0 indicates antagonistic effect.
To compare the effects of triple versus dual drug combinations in FIG. 3B, we calculated CI as follow: CI=−log 2 (Eabc/(Ea*Eb)), where Ea and Eb correspond to the effects of drugs a/VEM, b/GEF alone at a given concentration, and Eabc corresponds to the combined effects of drugs a and b at these same concentrations combined with a third drug (c/DAS) at the cell line-specific GI50 of DAS.

Experiment [2] deals with beta-catenin (CTNNB1) Y654. The experiment is described as follows: Western blot of beta-catenin Y654 phosphorylation. It counts as cell-based. To be noted: BRAF^V600E CRC cell lines, FIG. 4A, 11C, 12A. As for the experimental part:
(§1) For samples to be analyzed with the HT-KAM platform, cells at ˜85% confluency were washed three times with cold PBS and lysed with freshly prepared 1× cell lysis buffer (1 ml per 2.5×10^6 cells) (lOX Cell Lysis Buffer, Cell Signaling; cat. #9803) complemented with 1× of Halt Protease & Phosphatase (100×, ThermoScientific; cat. #1861281). Cell lysates were collected and spun down at 14,000 rpm for 15 min at 4° C. and supernatants stored at −80° C. For samples to be analyzed by western blot, cell lysates were prepared with RIPA lysis buffer (150 mM NaCl, 0.1% SDS, 1% Nonidet P40, 1% sodium deoxycholate and 10 mM sodium phosphate, pH 7.2) supplemented with protease and phosphatase inhibitors. After clearing by centrifugation at 12,000 rpm for 10 minutes at 4° C., the lysates were analyzed as described in the respective experiments.
(§2) For western-blot, samples were denatured by boiling in 1× Laemmli buffer and run on an 8% SDS-PAGE gel. After transfer onto a PVDF membrane and blocking with 3% BSA, the membranes were incubated with primary antibodies overnight at 4° C., washed 3 times with TBST (Tris-buffered saline containing 0.05% Tween-20), incubated with secondary antibodies for 1 hour at room temperature and developed using chemoluminescence (cat #32209 from Pierce).
A general note: A western blot detects proteins with antibodies after separation by electrophoresis.

A further experiment relates to SFK. The experiment is described as follows: Western blot of SFK activation (Y419 phosphorylation). It counts as cell-based. To be noted: BRAF^V600E CRC cell lines. As for the experimental part:
as §1, §2
Antibodies anti-HSP90 was procured from Santa Cruz Biotechnologies (H-114, cat #7947). […]

For another experiment, the system named is SRC. As to the kind of experiment: Automated IHC of active and total SRC in PDX tumors. The class given is in vivo, mice. To be noted: both PDX models after 3 or 21 days of treatment; FIGS. 1E, 1F, 8B, 8C. As for the experimental part: Primary antibody was diluted in Discovery Ab Diluent.
To detect phospho-Y419 SRC, phospho-Src (Y419) […] rabbit polyclonal supplied by R&D Systems (Cat #AF2685) was used at a titration of 1:50. […] Inhibitor was applied for 16 min.
To detect total SRC, TOTAL SRC (36D1) rabbit monoclonal manufactured by Cell Signaling Technology (Cat #2109) was used at a titration of 1:800. […] Inhibitor was applied for 16 minutes.

The next experiment relates to OUMS23. As to the kind of experiment: Cell viability assay (CellTiter-Glo), GI50, 3-day treatment. To be noted: OUMS-23, 72 h; OUMS23 (CRC MAP3K8^amp); 50% growth inhibition after 3 days of treatment compared to control; read-out: GI50 concentrations. The class given is cell-based. As for the experimental part: (§3) To assess the growth/survival response of cell lines to single or combinatorial drug treatments, we used CellTiter-Glo cell viability assay (Promega; cat #G7571). Cell culture and luminescence readouts were performed in 96- and 384-well plates after 3-day treatments. GI50 corresponds to the concentration of a given drug that causes 50% inhibition of cell growth (GI50). The effects of drug combinations on cell growth were assessed by calculating fold change in VEM-sensitivity and combination index (C.I.) that were experimentally measured from ≥9 individual datapoints around drugs' GI50, i.e. at GI50, 0.5×GI50, 2×GI50 concentrations of each drug per drug combination experiment. To address the particular effects of some drug treatments on some cell lines, the choice of experimental datapoints centered around drugs' GI50 effects was adjusted by including individual datapoints ranging from ≥GI25 to ≤GI75, leading to calculate fold change in VEM-sensitivity and combination index (C.I.) from 12 to 20 individual datapoints, as previously explained (7).
Background: ATP-based viability assays read luminescence as a measure of living cells.

In another experiment the test system is LS411N. The experiment is described as above. The class given is cell-based. To be noted: Homo sapiens, LS-411N, 72 h; LS411N (BRAF^V600E CRC); 50% growth inhibition after 3 days of treatment compared to control; read-out: GI50 concentrations. As for the experimental part:
as §3

For a further experiment, the system named is Sk-Mel-28. The experiment is described as above. The class given is cell-based. To be noted: Homo sapiens, 72 h; Sk-Mel-28 (BRAF^V600E melanoma); 50% growth inhibition after 3 days of treatment compared to control; read-out: GI50 concentrations. As for the experimental part: as §3
Another experiment relates to SNUC5. The description is as above. The class given is cell-based. To be noted: 72 h; SNUC5 (BRAF^V600E CRC); 50% growth inhibition after 3 days of treatment compared to control; read-out: GI50 concentrations. As to the method: as §3
Another experiment deals with HT29. The description is as above. It counts as cell-based. To be noted: Homo sapiens, HT-29, 72 h; HT29 (BRAF^V600E CRC); 50% growth inhibition after 3 days of treatment compared to control; read-out: GI50 concentrations. As to the method: as §3
The subject of the next experiment is LIM2405. Described as above. The class given is cell-based. To be noted: 72 h; LIM2405 (BRAF^V600E CRC); 50% growth inhibition after 3 days of treatment compared to control; read-out: GI50 concentrations. As to the method:
as §3

The next experiment concerns WiDr. Described as above. It counts as cell-based. To be noted: Homo sapiens, 72 h; WiDr (BRAF^V600E CRC); 50% growth inhibition after 3 days of treatment compared to control; read-out: GI50 concentrations. As to the method:
as §3

In another experiment the test system is VACO432. Described as above. The class given is cell-based. To be noted: 72 h; VACO432 (BRAF^V600E CRC); 50% growth inhibition after 3 days of treatment compared to control; read-out: GI50 concentrations. As to the method:
as §3

For the next experiment, the system named is RKO1. Described as above. To be noted: 72 h; RKO1 (BRAF^V600E CRC); 50% growth inhibition after 3 days of treatment compared to control; read-out: GI50 concentrations. The class given is cell-based. As to the method:
as §3

In a further experiment the test system is KM20. The experiment is described as above. To be noted: 72 h; KM20 (BRAF^V600E CRC); 50% growth inhibition after 3 days of treatment compared to control; read-out: GI50 concentrations. The class given is cell-based. As to the method: as §3
The next experiment has as its system A375. The experiment is described as above. It counts as cell-based. To be noted: Homo sapiens, A-375, 72 h; A375 (BRAF^V600E melanoma); 50% growth inhibition after 3 days of treatment compared to control; read-out: GI50 concentrations. As to the method: as §3

Regarding `CCCCC[C@H](O)/C=C/[C@H]1[C@H](O)CC(=O)[C@@H]1C/C=C\CCCC(=O)O` [PGE2, Prostaglandin E2], the “increase in resistance to vemurafenib” value in experiment [1] (BRAF^V600E CRC cells treated with PGE2, 3-day cell viability assays) is on record as 2 to 4 fold. In experiment [1] (PGE2 with vemurafenib in BRAF^V600E CRC cells, Bliss model), the CI scores result is “antagonism”. For the same compound, the “phosphorylation of beta-catenin (CTNNB1) at Y654” value in [2] is reported as “increase in phosphorylation”. For the same compound, the “SFK activation (phosphorylation of Y419)” value with SFK is reported as “increase in SFK activation”.

For `CC(C)(C)c1nc(-c2cccc(NS(=O)(=O)c3c(F)cccc3F)c2F)c(-c2ccnc(N)n2)s1` [dabrafenib, N-[3-[5-(2-Amino-4-pyrimidinyl)-2-(2-methyli-2-propanyl)-1,3-tliazol-4-yl]-2-fluorophenyl]-2,6-difluorobenzenesulfonarmide], the “active and total SRC (IHC)” value in the experiment with SRC is “statistically significant increases”.

For the compound `Cc1nc(Nc2ncc(C(=O)Nc3c(C)cccc3Cl)s2)cc(N2CCN(CCO)CC2)n1` [dasatinib, N-(2-chloro-6-mnethylphenyl)-2-[[6-[4-(2-hydroxyethyl)piperazin-1-yl]-2-methylpyrimidin-4-yl]amino]-1,3-thiazole-5-carboxamide], the GI50 in the experiment on OUMS23 turned out to be 1.9 µM; in the experiment with LS411N, 3 µM; in the experiment on Sk-Mel-28, 6.5 µM; with SNUC5, 6.5 µM; in the experiment with HT29, 8 µM; with LIM2405 it was 1.5 µM. In addition, the GI50 in the experiment with WiDr was determined as 0.9 µM; with VACO432, 2 µM; in the experiment on RKO1, 10 µM; in the experiment with KM20, 0.8 µM; in the experiment with A375, 3.5 µM.

As to `COc1cc2ncnc(Nc3ccc(F)c(Cl)c3)c2cc1OCCCN1CCOCC1` [gefitinib, N-(3-chloro-4-fluorophenyl)-7-methoxy-6-(3-morpholin-4-ylpropoxy)quinazolin-4-amine], the GI50 was 40 µM in the experiment with OUMS23; 30 µM in the experiment with LS411N; 20 µM in the experiment on Sk-Mel-28; 30 µM in the experiment on SNUC5; 25 µM with HT29; 30 µM in the experiment with LIM2405. The GI50 turned out to be 10 µM with WiDr; 7.5 µM in the experiment with VACO432; 40 µM in the experiment with RKO1; 20 µM in the experiment on KM20; 30 µM in the experiment with A375.

As to `CC(=O)Nc1cccc(-n2c(=O)n(C3CC3)c(=O)c3c(Nc4ccc(I)cc4F)n(C)c(=O)c(C)c32)c1` [trametinib, N-[3-[3-cyclopropyl-5-(2-fluoro-4-iodoanilino)-6,8-dimethyl-2,4,7-trioxopyrido[4,3-d]pyrimidin-1-yl]phenyl]acetamide], the “active and total SRC (IHC)” value with SRC is reported as “statistically significant increases”.
